Data from patent US20130209515A1, “ANTI-INFECTIVE AND IMMUNOMODULATORY COMPOUNDS” (priority 2005, published 2013).

System: mouse genes
Experiment: Whole genome expression in blood of mice after 2AA (Affymetrix GeneChip)
Assay type: in vivo
Protocol: To identify how 2AA pre-exposure promotes host defense to better protect against P. aeruginosa infection, we carried out whole genome gene expression studies of mice for several experimental conditions using the mouse full-thickness skin thermal injury infection model, including naïve; BI alone; 2AA treatment alone; 2AA pretreatment plus BI. The mice were injected IP, as we were not yet aware of the improved benefit obtained with IV delivery. Whole blood was collected after 0, 6, 24, 96 and 192 hr post 2AA injection. Also, pretreated BI mice were exposed to 2AA at 1 and 4 days pre-BI, with blood samples collected 24 hr post-BI. The transcriptome profiles were then determined and compared, and genes with statistically significant differences in their expression levels between the samples were further analyzed by pair-wise comparison (see experimental design, section 2.2).
In experiments to determine if T-aminoacetophenone acts as an immunomodulator, eight 6-week old CD-1 male mice were treated intraperitonialy with 500 μl of a 20 mM solution of T-aminoacetophenone in 0.9% NaCl (aq). A control group of mice was administered only 0.9% NaCl. Blood was withdrawn from the mice at time points of 6 hours, 24 hours, 96 hours, and 192 hours, and RNA was extracted from each blood sample.
Mouse GeneChip™ arrays, manufactured by Affymetrix (Santa Clara, Calif.), were used to compare the profile of gene expression in the blood samples of mice. The biotin-labeled cRNA used to hybridize to the GeneChips was prepared from the RNA extracted from the blood samples according to the Affymetrix GeneChip Expression Analysis Technical Manual (Research Genetics, Huntsville, Ala.).
The expression profiles from treated and untreated mice were compared and an additional constraint of a minimum expression ratio of 1 was applied to control false positives to 5%. The gene list was clustered and the genes showing upregulation at any of the time points considered were selected. […] Most of the genes listed in the table function in immune response or host-pathogen interaction. The table includes several cytokines and their receptors, genes involved in immune cell proliferation, and calcium-binding proteins that have a role in downstream signaling.

[1] = 2AA pre-BI, blood 24 hr post-BI (FIG. 38)

Q: What does the source list for `CC(=O)c1ccccc1N` [2AA, 2′-aminoacetophenone]?
A: down-regulated genes in 2AA-treated BI samples [1]: 23 genes; up-regulated genes in 2AA-treated BI samples [1]: do not identify any up-regulated; Fold Change AF220015 Rpt-1; regulatory protein, T lymphocyte 1 (6 h after IP 2AA, blood): 2.3 fold; Fold Change AF237910 Membrane-spanning 4-domains, subfamily A (6 h after IP 2AA, blood): 2.8 fold; Fold Change AI323359 Csfmr, colony stimulating factor IR, regulator of myeloid cell proliferation (6 h after IP 2AA, blood): 2.3 fold; Fold Change AI462015 Nuclear factor of kappa light chain gene enhancer in B-cells inhibitor, alpha (6 h after IP 2AA, blood): 2.3 fold; Fold Change AI648846 Solute carrier family 6 (6 h after IP 2AA, blood): 10.1 fold; Fold Change AV026617 FBJ osteosarcoma oncogene (6 h after IP 2AA, blood): 15.0 fold; Fold Change AV229143 Interferon activated gene (202A) (6 h after IP 2AA, blood): 21.2 fold; Fold Change AV318494 Myeloid cell leukemia sequence 1 (6 h after IP 2AA, blood): 1.8 fold; Fold Change BB193024 Interferon-induced transmembrane protein-2 (6 h after IP 2AA, blood): 5.0 fold; Fold Change BB241535 Suppressor of cytokine signaling 3 (6 h after IP 2AA, blood): 4.9 fold; Fold Change BB769628 Colony stimulating factor 2 receptor, beta 1 (6 h after IP 2AA, blood): 14.9 fold; Fold Change BB784999 Triggering receptor expressed on myeloid cells 1 (6 h after IP 2AA, blood): 11.6 fold; Fold Change BB831725 Suppressor of cytokine signaling 3 (6 h after IP 2AA, blood): 20.8 fold; Fold Change BC003839 Myeloid cell leukemia sequence 1 (Mcl1) (6 h after IP 2AA, blood): 1.5 fold; Fold Change BC010291 Interferon-inducible protein (Cd225) (6 h after IP 2AA, blood): 1.3 fold; Fold Change BC011092 Chemokine (C-C) receptor 1 (6 h after IP 2AA, blood): 1.2 fold; Fold Change BC011437 IL-1β (6 h after IP 2AA, blood): 3.5 fold; Fold Change BC012653 Chemokine (C-X3-C) receptor 1 (6 h after IP 2AA, blood): 30.6 fold; Fold Change BC021916 EMAPI, cytokine activity (6 h after IP 2AA, blood): 1.7 fold; Fold Change BC022943 Lymphocyte cytosolic protein 1 (6 h after IP 2AA, blood): 2.0 fold; Fold Change BE285634 Interleukin-1 receptor accessory protein (6 h after IP 2AA, blood): 1.0 fold; Fold Change NM_008039 Receptor activity [formyl peptide receptor, related sequence 2] (Fpr-rs2) (6 h after IP 2AA, blood): 13.6 fold; Fold Change NM_008677 p40phox; intracellular signaling cascade neutrophil cytosolic factor 4 (Ncf4) (6 h after IP 2AA, blood): 1.1 fold; Fold Change NM_008879 Pls2, L-fimbrin, calcium ion binding lymphocyte cytosolic proteing 1 (Lep 1) (6 h after IP 2AA, blood): 20.4 fold; Fold Change NM_009883 Nuclear factor induced by IL-6 (NF-IL6) (6 h after IP 2AA, blood): 1.0 fold; Fold Change NM_011087 Paired-Ig-like receptor A1 (Piral) (6 h after IP 2AA, blood): 1.9 fold; Fold Change NM_011313 Cacy; calcium binding protein A6 (calcyclin)cyclin-dependent protein kinase (6 h after IP 2AA, blood): 5.7 fold; Fold Change NM_011315 Saa-3 lipid transported activity acute phase response (6 h after IP 2AA, blood): 4.7 fold; Fold Change NM_011355 PU.1, transcription factor complex cell growth and/or maintenance (6 h after IP 2AA, blood): 17.0 fold; Fold Change NM_011940 Interferon-activatable protein (Ifi202) (6 h after IP 2AA, blood): 29.8 fold; Fold Change NM_011999 DCIR; C-type (calcium dependent, carbohydrate recognition domain) lectin (6 h after IP 2AA, blood): 22.8 fold; Fold Change NM_030691 Integral to membrane immunoglobulin superfamily, member 6 (Igsf6) (6 h after IP 2AA, blood): 14.9 fold; Fold Change NM_030694 Interferon-induced transmembrane protein-3 (6 h after IP 2AA, blood): 4.7 fold; Fold Change U05264 Glycoprotein 49B (Gp49b) (6 h after IP 2AA, blood): 4.7 fold; Fold Change U72644 Leukocyte specific transcript 1 (6 h after IP 2AA, blood): 1.6 fold; Fold Change X14607 Lipocalin 2 (6 h after IP 2AA, blood): 13.9 fold; additional genes upregulated (higher cutoff, Table 4) (6 hours after 2′-aminoacetophenone): 10 genes; Fold Change AF220015 Rpt-1; regulatory protein, T lymphocyte 1 (24 h after IP 2AA, blood): 0.6 fold; Fold Change AF237910 Membrane-spanning 4-domains, subfamily A (24 h after IP 2AA, blood): 0.5 fold; Fold Change AI323359 Csfmr, colony stimulating factor IR, regulator of myeloid cell proliferation (24 h after IP 2AA, blood): 0.7 fold; Fold Change AI462015 Nuclear factor of kappa light chain gene enhancer in B-cells inhibitor, alpha (24 h after IP 2AA, blood): 0.4 fold; Fold Change AI648846 Solute carrier family 6 (24 h after IP 2AA, blood): 8.0 fold; Fold Change AV026617 FBJ osteosarcoma oncogene (24 h after IP 2AA, blood): 23.8 fold; Fold Change AV229143 Interferon activated gene (202A) (24 h after IP 2AA, blood): 10.9 fold; Fold Change AV318494 Myeloid cell leukemia sequence 1 (24 h after IP 2AA, blood): 1.1 fold; Fold Change BB193024 Interferon-induced transmembrane protein-2 (24 h after IP 2AA, blood): 1.0 fold; Fold Change BB241535 Suppressor of cytokine signaling 3 (24 h after IP 2AA, blood): 1.1 fold; Fold Change BB769628 Colony stimulating factor 2 receptor, beta 1 (24 h after IP 2AA, blood): 6.9 fold; Fold Change BB784999 Triggering receptor expressed on myeloid cells 1 (24 h after IP 2AA, blood): 5.9 fold; Fold Change BB831725 Suppressor of cytokine signaling 3 (24 h after IP 2AA, blood): 6.5 fold; Fold Change BC003839 Myeloid cell leukemia sequence 1 (Mcl1) (24 h after IP 2AA, blood): 0.0 fold; Fold Change BC010291 Interferon-inducible protein (Cd225) (24 h after IP 2AA, blood): 0.0 fold; Fold Change BC011092 Chemokine (C-C) receptor 1 (24 h after IP 2AA, blood): −0.9 fold; Fold Change BC011437 IL-1β (24 h after IP 2AA, blood): 0.6 fold; Fold Change BC012653 Chemokine (C-X3-C) receptor 1 (24 h after IP 2AA, blood): 11.6 fold; Fold Change BC021916 EMAPI, cytokine activity (24 h after IP 2AA, blood): 0.3 fold; Fold Change BC022943 Lymphocyte cytosolic protein 1 (24 h after IP 2AA, blood): 0.2 fold; Fold Change BE285634 Interleukin-1 receptor accessory protein (24 h after IP 2AA, blood): 0.2 fold; Fold Change NM_008039 Receptor activity [formyl peptide receptor, related sequence 2] (Fpr-rs2) (24 h after IP 2AA, blood): 0.6 fold; Fold Change NM_008677 p40phox; intracellular signaling cascade neutrophil cytosolic factor 4 (Ncf4) (24 h after IP 2AA, blood): 0.2 fold; Fold Change NM_008879 Pls2, L-fimbrin, calcium ion binding lymphocyte cytosolic proteing 1 (Lep 1) (24 h after IP 2AA, blood): 8.4 fold; Fold Change NM_009883 Nuclear factor induced by IL-6 (NF-IL6) (24 h after IP 2AA, blood): 0.3 fold; Fold Change NM_011087 Paired-Ig-like receptor A1 (Piral) (24 h after IP 2AA, blood): 0.9 fold; Fold Change NM_011313 Cacy; calcium binding protein A6 (calcyclin)cyclin-dependent protein kinase (24 h after IP 2AA, blood): 2.3 fold; Fold Change NM_011315 Saa-3 lipid transported activity acute phase response (24 h after IP 2AA, blood): 5.6 fold; Fold Change NM_011355 PU.1, transcription factor complex cell growth and/or maintenance (24 h after IP 2AA, blood): 0.0 fold; Fold Change NM_011940 Interferon-activatable protein (Ifi202) (24 h after IP 2AA, blood): 9.4 fold; Fold Change NM_011999 DCIR; C-type (calcium dependent, carbohydrate recognition domain) lectin (24 h after IP 2AA, blood): 8.0 fold; Fold Change NM_030691 Integral to membrane immunoglobulin superfamily, member 6 (Igsf6) (24 h after IP 2AA, blood): 3.5 fold; Fold Change NM_030694 Interferon-induced transmembrane protein-3 (24 h after IP 2AA, blood): 1.1 fold; Fold Change U05264 Glycoprotein 49B (Gp49b) (24 h after IP 2AA, blood): 1.0 fold; Fold Change U72644 Leukocyte specific transcript 1 (24 h after IP 2AA, blood): 0.9 fold
